Where “and” joins values, the source holds several entries; their conditions need not be identical. Equal entries are not always repeated. Where two headings read alike, the source gives them in different places.
Legend:
[1] = test system: Corn; experiment: Greenhouse test, combination of Procedures II and III: insecticide in-furrow or in cover layer, herbicide and antidote incorporated in cover layer (Examples 1-3, 6; Tables 1-3, 6); format: in vivo; conditions: for % Injury Corn / % Corn Injury PN 3320 / % Corn Injury PN 3377: 3 weeks; for Percent Injury Corn: 7 weeks
[2] = test system: velvetleaf (Abutilon theophrasti); experiment: Greenhouse test, combination of Procedures II and III (Examples 1, 2; Tables 1, 2); format: in vivo; conditions: for % Injury VELE: 3 weeks; for Percent Injury VELE: 7 weeks
[3] = test system: Corn; experiment: Greenhouse test Procedure II: herbicide, insecticide and antidote incorporated in cover layer (Example 4; Table 4); format: in vivo; conditions: Insecticide 2 3.36 kg/Ha alone; 3 weeks
Description: (§1) Containers were filled and compacted with a fumigated silt loam top soil to a depth of about 1.3 cm from the top of the container. A first container was designated as an untreated control, a second container was designated as a herbicide control, and a third container was designated as a herbicide + antidote test container. Each of the containers was seeded with a crop species. A measured amount of herbicide dispersed or dissolved in acetone was applied to a measured quantity of soil. To this same quantity of soil treated with herbicide, there was added a measured amount of antidote dispersed or dissolved in acetone. The quantity of soil treated with the herbicide and antidote was thoroughly mixed to incorporate the herbicide and antidote in the soil uniformly. The seed bed in the third container of soil was covered with the soil treated with the herbicide and antidote and the container was leveled. For each test series, the seed beds of the first and second containers were likewise covered by soil layers. the cover layer of the first container was not treated with herbicide or antidote.
(§2) This procedure is the same as Procedure I, but modified in the manner that after incorporation of the chemicals (herbicide, antidote and insecticide), the containers with the covered seedbed were treated with an initial overhead irrigation equivalent to 0.6 cm rainfall, then subsequently sub-irrigated as required on greenhouse benches.
(§3) The procedure used in this test was Procedure No. 2 above. Formulations of herbicide, insecticide and antidote were applied via track sprayer sequentially onto cover layers, incorporated into the soil which was spread over seedbeds, then irrigated from above with 0.6 cm water. Observations were made three (3) weeks after treatment.

[4] = test system: VELE (velvetleaf); experiment: Greenhouse test Procedure II (Example 4; Table 4); format: in vivo, Abutilon theophrasti; conditions: Insecticide 2 3.36 kg/Ha alone; 3 weeks
Description: as §1, §2, §3

[5] = test system: Corn; experiment: Greenhouse test Procedure I with PPI or POE herbicide and foliar insecticide (Example 5; Table 5); format: in vivo
Description: as §1
(§4) Insecticide application was made as described in the tests in the examples below. The containers were then placed on a bench in a greenhouse and sub-irrigated as required for the duration of the test.
(§5) Said herbicide and antidote were sequentially pipetted onto cover layers, which were spread over the seed beds and subirrigated as in Procedure I and allowed to grow to a height of about 10 cm over a period of 11 days. Herbicide No. 1 and Insecticide No. 2 were then sequentially sprayed on the plant foliage. Observations were made three (3) weeks after initial treatment, 10 days after foliar treatment).

[6] = test system: VELE (velvetleaf); experiment: as above; format: in vivo, Abutilon theophrasti
Description: as §1, §4, §5

[7] = test system: Corn; experiment: Greenhouse test in sterile vs. unsterile soils (chemicals and procedures of Example 6); format: in vivo; conditions: Herbicide No. 1
Description: Other greenhouse tests were conducted involving the same chemicals and procedures used in Example 6, to determine any effects from microbial breakdown relative to interactions between the herbicide and insecticides in sterile vs. unsterile soils. […] This finding comports with reports in the trade that organophosphates are known to suffer microbial breakdown due to soil microbes.

[8] = test system: Shattercane (SHCA); format: in vivo
[9] = test system: Velvetleaf (VELE); format: in vivo, Abutilon theophrasti
[10] = test system: Giant foxtail (GIFT); experiment: whole plant or invertebrate; format: in vivo; conditions: in vivo
[11] = test system: Corn
[12] = test system: Corn; conditions: in vivo
[13] = test system: Velvetleaf (VELE); experiment: whole plant or invertebrate; format: in vivo, Abutilon theophrasti; conditions: in vivo
[14] = test system: cotton (COTT); experiment: Multi-crop greenhouse test, biocide, herbicide and safener applied to soil covers (Examples 65, 66; Tables 64, 65); format: in vivo; design: inhibition: dose or concentration left out as unconfirmed; conditions: Gossypium hirsutum, soil, Biocide No. 1 8.96 Kg/Ha alone
Description: (§6) Tests according to this invention in various crops indicate widespread application of the invention. In Examples 62-66 below are described tests with a variety of herbicides contacted with COUNTER® 15G in the presence and absence of MON-7400 (Antidote No. 12); MON-13900 (No. 1); MON-4660 (No. 16) and flurazole (No. 16). Those tests were conducted according to Procedures IV or V described above and illustrated further in other foregoing examples. Plants used in all tests were, for crops (as abbreviated in parentheses); cotton (COTT); soybean (SOBE); CORN, grain sorghum (GRSO); wheat (WHEA) and RICE, and the weeds giant foxtail (GIFT) and velvetleaf (VELE). The data in the tables below represent averages of two replications.
(§7) In this test the crops and weeds were planted 1.3 cm deep in 13.7 cm X 27.7 cm pans containing Dupo silt loam soil. The test safeners were applied in acetone solution and COUNTER 15G as dry granules to soil cover layers and incorporated by shaking in a bag. Treated cover layers were placed on seeded pans which were transferred to greenhouse benches and subirrigated. Herbicide was applied POE six (6) days after PPI initiation and observations of plant injury made ten (10) days later; results are shown in Table 61. The herbicide used in this example was BEACON (No. 8).
(§8) In another test in the several crops and weeds used in this test series, the herbicidal component was MON-12000 (No. 1); the other components were the same. the procedure used in this test was the same as that described in Example 62, modified to use a light overhead irrigation (about 0.32 cm/day) during days 4-7 of the test.
In yet another test in this series, XRD-498 (Herbicide No. 21) was used as the herbicidal component in contact with COUNTER 15G in the presence of the above safeners. The various components of the system (biocide, herbicide and safener) were applied concurrently to soil covers of the seeded plants.

[15] = test system: Corn; experiment: Multi-crop greenhouse test, soil-applied (Examples 65, 66; Tables 64, 65); format: in vivo; design: inhibition: dose or concentration left out as unconfirmed; conditions: Zea mays, Biocide No. 1 8.96 Kg/Ha alone
Description: as §6, §7
as §8, with “test. Table 64 […]” for “test.”

[16] = test system: Giant foxtail (GIFT); experiment: as above; format: in vivo; design: inhibition: dose or concentration left out as unconfirmed; conditions: Setaria faberi, Biocide No. 1 8.96 Kg/Ha alone
Description: as §6, §7
as §8, with “test. Table 64 […]” for “test.”

[17] = test system: RICE; experiment: as above; format: in vivo; design: inhibition: dose or concentration left out as unconfirmed; conditions: Oryza sativa, Biocide No. 1 8.96 Kg/Ha alone
Description: as §6, §7
as §8, with “test. Table 64 […]” for “test.”

[18] = test system: grain sorghum (GRSO); experiment: as above; format: in vivo; design: inhibition: dose or concentration left out as unconfirmed; conditions: Sorghum, Biocide No. 1 8.96 Kg/Ha alone
Description: as §6, §7
as §8, with “test. Table 64 […]” for “test.”

[19] = test system: soybean (SOBE); experiment: as above; format: in vivo; design: inhibition: dose or concentration left out as unconfirmed; conditions: Glycine max, Biocide No. 1 8.96 Kg/Ha alone
Description: as §6, §7
as §8, with “test. Table 64 […]” for “test.”

[20] = test system: wheat (WHEA); experiment: as above; format: in vivo; design: inhibition: dose or concentration left out as unconfirmed; conditions: Triticum aestivum, Biocide No. 1 8.96 Kg/Ha alone
Description: as §6, §7
as §8, with “test. Table 64 […]” for “test.”

[21] = test system: Velvetleaf (VELE); experiment: as above; format: in vivo, Abutilon theophrasti; design: inhibition: dose or concentration left out as unconfirmed; conditions: Abutilon theophrasti, Biocide No. 1 8.96 Kg/Ha alone
Description: as §6, §7
as §8, with “test. Table 64 […]” for “test.”

[22] = Ex. 2: Insecticide 2 3.36 kg/Ha alone
[23] = Ex. 6: Insecticide 2 0.23 Kg/305m alone
[24] = Insecticide 2 1.68 Kg/Ha, herbicide cell '-', mode POE (so in the source)
[25] = Table 14: no antidote, Herbicide No. 7 0.84 Kg/Ha POE and/or Biocide No. 2 8.96 Kg/Ha PPI, per label, 13 days after planting
[26] = no antidote, […], 13 days after planting
[27] = Ex. 2: Insecticide 1 0.23 Kg/305m alone
[28] = Ex. 6: Insecticide 1 0.23 Kg/305m alone
[29] = Insecticide 1 0.23 kg/305m alone
[30] = Insecticide 1 (H2O) (crystals scattered in-furrow) alone
[31] = Ex. 12: Biocide No. 1 8.96 Kg/Ha PPI alone, 13 days after planting
[32] = no antidote, […], observed 10 days after herbicide application

## CCOP(=S)(OCC)Oc1nc(Cl)c(Cl)cc1Cl [Biocide No. 2, O,O-Diethyl O-(3,5,6-trichloro-2-pyridyl)phosphorothioate, reference compound]
[1]; [22]
  % Injury Corn: 8%
[1]; [23]
  % Corn Injury PN 3320: 0%
  % Corn Injury PN 3377: 0%
[1]; Insecticide 2 3.36 kg/ha alone
  Percent Injury Corn: 0%
[2]; [22]
  % Injury VELE: 3%
[2]; Insecticide 2 3.36 kg/ha alone
  Percent Injury VELE: 0%
[3]
  % Injury Corn: 0%
[4]
  % Injury VELE: 0%
[5]; Insecticide 2 1.68 Kg/Ha alone
  % Injury Corn: 0%
[5]; [24]
  % Injury Corn: 35%
[6]; Insecticide 2 1.68 Kg/Ha alone
  % Injury VELE: 0%
[6]; [24]
  % Injury VELE: 60%
[7]
  interactions with herbicide in unsterile vs. sterile soil: did not appear to be reduced
[8]; [25]
  % Inhibition SHCA: 0%
[8]; in vivo
  % Inhibition SHCA: 30%
[8]; [26]
  % Inhibition SHCA: 25%
[9]; [25]
  % Inhibition VELE: 0%
[9]; in vivo
  % Inhibition VELE: 0%
[9]; [26]
  % Inhibition VELE: 0%
[10]
  % Inhibition GIFT: 45% and 70%
[11]; [25]
  % Inhibition Corn: 0%
[11]; in vivo
  % Inhibition Corn: 0%
[11]; [26]
  % Inhibition Corn: 0%
[12]
  % Inhibition Corn: 0%

## CCOP(=S)(OCC)SCSC(C)(C)C [Biocide No. 1, S-[[(1,1-dimethyl-ethyl)thio]-methyl]O,O-diethylphosphorodithioate, reference compound]
[1]; [27]
  % Injury Corn: 3%
[1]; [28]
  % Corn Injury PN 3320: 0%
  % Corn Injury PN 3377: 0%
[1]; [29]
  Percent Injury Corn: 0%
[1]; [30]
  Percent Injury Corn: 0%
[2]; [27]
  % Injury VELE: 0%
[2]; [29]
  Percent Injury VELE: 0%
[2]; [30]
  Percent Injury VELE: 0%
[7]
  interactions with herbicide in unsterile vs. sterile soil: did not appear to be reduced
[8]; [31]
  % Inhibition SHCA: 25%
[8]; [32]
  % Inhibition SHCA: 20%
[9]; [32]
  % Inhibition VELE: 15%
[10]
  % Inhibition GIFT: 10% and 20%
[13]
  % Inhibition VELE: 0%
[14]; Table 64
  inhibition: 0%
[14]; Table 65
  inhibition: 0%
[15]; Table 64
  inhibition: 0%
[15]; Table 65
  inhibition: 0%
[16]; Table 64
  inhibition: 30%
[16]; Table 65
  inhibition: 30%
[17]; Table 64
  inhibition: 10%
[17]; Table 65
  inhibition: 0%
[18]; Table 64
  inhibition: 0%
[18]; Table 65
  inhibition: 0%
[19]; Table 64
  inhibition: 0%
[19]; Table 65
  inhibition: 0%
[20]; Table 64
  inhibition: 0%
[20]; Table 65
  inhibition: 0%
[21]; Table 64
  inhibition: 0%
[21]; Table 65
  inhibition: 0%
[11]; [31]
  % Inhibition Corn: 5%
[11]; in vivo
  effect on corn before application of the herbicide: slight early stunting and leaf malformation
[12]
  % Inhibition Corn: 5% and 0%

— EP0565593B1, “REDUCING PESTICIDAL INTERACTIONS IN CROPS” (priority 1990, dated 1992)
